Laboratory results from PMC8351955, “Targeting Mycobacterium tuberculosis response to environmental cues for the development of effective antitubercular drugs” (PLoS Biology, 2021).
“And” between values parts separate entries of the source, which are not always exact repeats. Equal values may be shown once. Read-outs that look alike come from different tables or passages of the source.

Key:
[1] = tested on: Mtb growth in J774 macrophage-like cells; assay: J774 infection in 96-well plates, mKO fluorescence 6 days post-infection; type: cell-based, Mycobacterium tuberculosis; details: for % Growth: Fig. 2D, DMSO = 100
Procedure, shortened: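 J774 cells infected with mKO-expressing log-phase Mtb (40 μl at OD600 = 0.2 per well) and treated with compound at 10 μM final (0.1% DMSO). mKO fluorescence (ex 543/em 565 nm) read at infection and 6 days later at 37 °C, 5% CO2; growth expressed relative to DMSO controls as 100%.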

[2] = Pharmacokinetic assay, single oral dose in CD-1 mice; type: in vivo; details: female; for AUC(0-t): mouse, plasma, CD-1 mice, read-out: plasma AUC0–5h
Experimental: Blood samples were collected in K2EDTA-coated tubes predose, 0.5, 1, 3, and 5 hours post-dose, placed on ice, and centrifuged to recover plasma. The recovered plasma was kept at −80°C as needed prior to analysis, which was performed as previously described. In brief, a Sciex Applied Biosystems Qtrap 4000 triple-quadrupole mass spectrometer coupled to an Agilent 1260 HPLC system was used for HPLC coupled to tandem mass spectrometry (LC–MS/MS) quantitative analysis of the samples, with chromatography attained using an Agilent Zorbax SB-C8 column (2.1 × 30 mm; particle size, 3.5 μm) and a reverse-phase gradient elution. The aqueous mobile phase consisted of Milli-Q deionized water with 0.1% formic acid (A), while the organic mobile phase was 0.1% formic acid in acetonitrile (B). The gradient setup was as follows: 5% to 90% B over 2 minutes, 1 minute at 90% B, then an immediate drop to 5% B and an additional 1 minute at 5% B. Quantification of molecules was carried out via multiple reaction monitoring of parent/daughter transitions in electrospray positive ionization mode, and sample analyses accepted if quality control and standard samples had concentrations within 20% of the nominal concentration. Preparation of compounds for generation of standard curves and quality control spiking solutions were performed as previously described. Data were processed using Analyst software (Version 1.6.2; Applied Biosystems Sciex, Framingham, MA).

[3] = Vero cell toxicity assay (MTS); type: cell-based; details: African green monkey, Vero cells
Experimental: Vero cells (African green monkey kidney epithelial cells; ATCC CCL-81) were maintained in DMEM + 10% FBS. For the cell toxicity assay, Vero cells were plated at 1 × 10^5 cells/well in a 96-well plate and incubated for 2 to 3 hours to allow cells to settle. The test compound was dissolved in DMSO at a final concentration of 12 mg/ml. The test compound solution was then added to plated cells, resulting in final test concentrations of 50 to 0.78 μg/ml, with each concentration tested at least in duplicate. To evaluate […] cell viability, 20 μl of a 1:20 MTS:PMS reagent (Promega CellTiter 96 AQueous nonradioactive cell proliferation assay kit) was added to each well after 72 hours of incubation at 37°C, and the plate then incubated for an additional 3 hours. Absorbance at 490 nm was read on a Molecular Devices SpectraMax M5 microplate reader. The CC50 (the minimal amount of compound that inhibited Vero cell growth by 50%) was extrapolated by plotting absorbance at 490 nm versus the concentration […].

[4] = Human plasma protein binding; type: in vitro ADME
[5] = tested on: CYP3A4/5; assay: Human cytochrome P450 inhibition, 3A4/5; type: in vitro ADME; details: read-out: % inhibition of CYP 3A4/5
[6] = tested on: Mtb; assay: Mtb growth assay in standard 7H9 medium (OD600); details: for OD600: Fig. 2F
Text: Bacterial growth was tracked by measuring OD600 every 3 days for 12 days. […] Bacterial growth was tracked by measurement of OD600 every 3 days over 12 days.

[7] = molecular target: CYP2C19 (Homo sapiens, UniProt P33261); assay: Human cytochrome P450 inhibition, 2C19; type: in vitro ADME; details: read-out: % inhibition of CYP 2C19
Experimental: (§1) Assays examining mouse and human liver microsomal stability, kinetic aqueous solubility, mouse and human plasma protein binding and stability, and human cytochrome P450 inhibition characteristics of the compounds were run by BioDuro (San Diego, CA), using standard protocols as previously described [37]. hERG inhibition assays were also performed by BioDuro.

[8] = tested on: J774 cells; assay: Intracellular drug accumulation assay in J774 cells (LC-MS); details: 24 hours
[9] = Mouse plasma protein binding; type: in vitro ADME
Experimental: as §1

CYP2C19, sequence (P33261 whole entry): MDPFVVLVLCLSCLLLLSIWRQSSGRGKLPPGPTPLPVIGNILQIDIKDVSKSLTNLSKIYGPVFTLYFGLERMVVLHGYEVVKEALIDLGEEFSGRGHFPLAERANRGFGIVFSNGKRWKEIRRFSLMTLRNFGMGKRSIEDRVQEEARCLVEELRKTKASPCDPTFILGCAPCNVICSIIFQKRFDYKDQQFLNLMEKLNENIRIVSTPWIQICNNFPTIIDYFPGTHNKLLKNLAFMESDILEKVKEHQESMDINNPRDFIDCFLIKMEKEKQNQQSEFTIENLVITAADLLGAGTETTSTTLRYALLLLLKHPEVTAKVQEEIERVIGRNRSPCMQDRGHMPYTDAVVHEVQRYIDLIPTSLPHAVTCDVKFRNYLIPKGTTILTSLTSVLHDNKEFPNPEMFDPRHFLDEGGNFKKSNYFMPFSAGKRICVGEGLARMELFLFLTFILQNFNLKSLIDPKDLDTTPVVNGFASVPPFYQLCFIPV

CCSc1ncc(CN2CCN(c3nc4ccccc4o3)CC2)cn1 [C6, 2-(4-((2-(ethylthio)pyrimidin-5-yl)methyl)piperazin-1-yl)benzo[d]oxazole]
% growth of Mtb in J774 cells, average ([1]; 10 μM compound, 6 days post-infection, DMSO = 100%, Fig 1H): 40.8112% | Inhibition of Mtb growth in J774 cells ([1]; 10 μM, 6 days post-infection): Mtb growth inhibition | % Growth ([1]; average of 4 replicates): 56.2334% | % Growth ([1]; individual replicates): 53.4835% and 56.5013% and 56.5506% and 58.3983% | Kp at 5 h ([2]; CD-1, mouse, 5-hour partitioning between plasma and lung, 25 mg/kg po, read-out: Clung/Cplasma): 0.86 | AUC(0-t) ([2]; single 5 mg/kg po dose): 5480 ng·h/mL | AUC(0-t) ([2]; single 25 mg/kg po dose): 25700 ng·h/mL | CC50 at 72 h [3]: > 50 µg/mL | fraction unbound [4]: 0.008 | inhibition at 10 µM [5]: < 1% | Effect on Mtb growth in standard 7H9 media ([6]; 10 μM, OD600 over 12 days): no effect | OD600 ([6]; day 3, average): 0.1933 | OD600 ([6]; day 3, individual replicates): 0.2 (2×) and 0.18 | OD600 ([6]; day 6, average): 0.3733 | OD600 ([6]; day 6, individual replicates): 0.38 (2×) and 0.36 | OD600 ([6]; day 9, average): 0.4933 | OD600 ([6]; day 9, individual replicates): 0.5 (2×) and 0.48 | OD600 ([6]; day 12, average): 0.6333 | OD600 ([6]; day 12, individual replicates): 0.64 (2×) and 0.62 | inhibition at 10 µM [7]: 30.3% | Intracellular accumulation in J774 cells [8]: dose-dependent accumulation | fraction unbound [9]: 0.03
